Measurements: patent US12534496B2, “Polymorphic forms of Cyclo (-His-Pro) and methods of use to treat kidney disease” (NovMetaPharma Co., Ltd., priority 2018, dated 2026)

How the values were obtained:
Format in all cases: physicochemical
[1] = Drug substance stability study, 40±2 °C/75±5% RH (appearance, assay, impurities, chiral, water content, XRPD); conditions: for XRPD: reference standard of Pattern 2
Protocol: Packaging: Sample at each individual time point was packaged into double Antistatic LDPE bags both secured with cable ties. The sample packed for the same storage condition were stored together within a fiber drum, and closed with metal lid. All packages were prepared in the same fashion and labeled.
Time zero will be the day samples are placed on station. Initial testing results were from the release testing as long as samples are put on station within 30 days of the release test date, otherwise, initial was repeated.
Study Requirements: Total 22.5 g sample (Total 21 g sample if initial test is not needed): • 1.5 g for initial test if needed; • 21 g sample will be divided into 14 parts, 1.5 g for each parts, sample for each part should be weighed into double Antistatic LDPE bags both secured with cable ties. The stability samples for each storage condition are stored together within a fiber drum, closed with metal lid, and then stored at 25±2° C./60+5% RH (9 bags) and 40±2° C./75±5% RH (5 bags), respectively. Sampling Time:
Samples stored not more than 6 months were pulled on schedule date or within 2 business days after the scheduled date. Samples stored more than 6 months were pulled within +2 business days of the scheduled date.
Stability samples stored for one month to one year, and greater than one year were analyzed and completed within 10 and 20 business days after the samples pulled out from stability chamber, respectively. If time zero testing was performed, it was analyzed within 10 business days after study initiation.

[2] = Dynamic vapor sorption (DVS) at 25 °C with post-DVS XRPD; conditions: for Post-DVS XRPD form: after DVS cycles at 25 °C
Protocol: DVS was carried out by placing an approximately 10-20 mg sample into a mesh vapour sorption balance pan and loaded into a DVS Intrinsic Dynamic Vapour Sorption Balance by Surface Measurement Systems. The sample was subjected to a ramping profile from 40 to 90% relative humidity (RH) at 10% increments, maintaining the sample at each step until a stable weight had been achieved (dm/dt 0.004%, minimum step length 30 minutes, maximum step length 500 minutes) at 25° C. After completion of the sorption cycle, the sample was dried using the same procedure to 0% RH and then a second sorption cycle back to 40% RH. Two cycles were performed. The weight change during the sorption/desorption cycles were plotted, allowing for the hygroscopic nature of the sample to be determined. XRPD analysis was then carried out on any solid retained.
Approximately, 10-20 mg of sample was placed into a mesh vapor sorption balance pan and loaded into a DVS Intrinsic dynamic vapor sorption balance by Surface Measurement Systems. The sample was subjected to a ramping profile from 40-90% relative humidity (RH) at 10% increments, maintaining the sample at each step until a stable weight had been achieved (dm/dt 0.004%, minimum step length 30 minutes, maximum step length 500 minutes) at 25° C. After completion of the sorption cycle, the sample was dried using the same procedure to 0% RH and then a second sorption cycle back to 40% RH. Two cycles were performed. The weight change during the sorption/desorption cycles were plotted, allowing for the hygroscopic nature of the sample to be determined. XRPD analysis was then carried out on any solid retained.

[3] = Solution state chemical stability in water/acetone and EtOH/water/MtBE (HPLC purity); conditions: water/acetone and EtOH/H2O/MtBE, 50 °C for 20 h
Protocol: Solution state chemical stability of the compound was studied in different solvent systems at different temperatures (Table 4). The solution was held at 50° C. and 80° C., and purity of the solution was tracked. The compound was generally stable for at least 20 hours.

With O=C1N[C@@H](Cc2cnc[nH]2)C(=O)N2CCC[C@@H]12 [Pattern 2, Pyrrolo [1,2-a]pyrazine-1,4-dione, hexahydro-3-(1H-imidazol-5-ylmethyl)-, hydrate (1:1), (3S, 8aS)-] the Appearance ([1]; 40 ± 2° C./75 ± 5% RH, 1M) was “Off-white”, the “Assay by HPLC” value ([1]; 40 ± 2° C./75 ± 5% RH, 1M) was 103.2% and the “Chiral, HPLC: chiral impurity (D, D) optical isomer” value (shortened to “Chiral … (D, D) optical isomer”) ([1]; 40 ± 2° C./75 ± 5% RH, 1M) was “(D, D):N, D”. The “Chiral, HPLC: chiral impurity (D, L) optical isomer” value (“Chiral … (D, L) optical isomer” below) ([1]; 40 ± 2° C./75 ± 5% RH, 1M) was “(D, L):N, D”, the “Chiral, HPLC: chiral impurity (L, D) optical isomer” value (from here on “Chiral … (L, D) optical isomer”) ([1]; 40 ± 2° C./75 ± 5% RH, 1M) was “(L, D):N, D” and the “Chiral, HPLC: chiral purity” value ([1]; 40 ± 2° C./75 ± 5% RH, 1M) was 100.0%. For the same compound, the “Impurities, HPLC: H-His-OH” value ([1]; 40 ± 2° C./75 ± 5% RH, 1M) was 0.08%, the “Impurities, HPLC: each other individual impurity” value ([1]; 40 ± 2° C./75 ± 5% RH, 1M) was “individual < 0.05%” and the “Water content (KF)” value ([1]; 40 ± 2° C./75 ± 5% RH, 1M) was 7.2%. The Appearance ([1]; 40 ± 2° C./75 ± 5% RH, 3M) was “Off-white”, the “Assay by HPLC” value ([1]; 40 ± 2° C./75 ± 5% RH, 3M) was 103.3% and the “Chiral … (D, D) optical isomer” value ([1]; 40 ± 2° C./75 ± 5% RH, 3M) was “(D, D):N, D”. For the same compound, the “Chiral … (D, L) optical isomer” value ([1]; 40 ± 2° C./75 ± 5% RH, 3M) was “(D, L):N, D”, the “Chiral … (L, D) optical isomer” value ([1]; 40 ± 2° C./75 ± 5% RH, 3M) was “(L, D):N, D” and the “Chiral, HPLC: chiral purity” value ([1]; 40 ± 2° C./75 ± 5% RH, 3M) was 100.0%. For the same compound, the “Impurities, HPLC: H-His-OH” value ([1]; 40 ± 2° C./75 ± 5% RH, 3M) was 0.07%, the “Impurities, HPLC: each other individual impurity” value ([1]; 40 ± 2° C./75 ± 5% RH, 3M) was “individual < 0.05%” and the “Water content (KF)” value ([1]; 40 ± 2° C./75 ± 5% RH, 3M) was 7.2%. For the same compound, the Appearance ([1]; 40 ± 2° C./75 ± 5% RH, 6M) was “Off-white”, the “Assay by HPLC” value ([1]; 40 ± 2° C./75 ± 5% RH, 6M) was 102.4% and the “Chiral … (D, D) optical isomer” value ([1]; 40 ± 2° C./75 ± 5% RH, 6M) was “(D, D):N, D”. The “Chiral … (D, L) optical isomer” value ([1]; 40 ± 2° C./75 ± 5% RH, 6M) was “(D, L):N, D”, the “Chiral … (L, D) optical isomer” value ([1]; 40 ± 2° C./75 ± 5% RH, 6M) was “(L, D):0.5%” and the “Chiral, HPLC: chiral purity” value ([1]; 40 ± 2° C./75 ± 5% RH, 6M) was 99.9%. The “Impurities, HPLC: C16081735-D-isomer” value ([1]; 40 ± 2° C./75 ± 5% RH, 6M) was “isomer: 0.05%”, the “Impurities, HPLC: H-His-OH” value ([1]; 40 ± 2° C./75 ± 5% RH, 6M) was 0.06% and the “Water content (KF)” value ([1]; 40 ± 2° C./75 ± 5% RH, 6M) was 7.2%. The XRPD ([1]; 40 ± 2° C./75 ± 5% RH, 6M) was “Conform to reference”, the Appearance ([1]; Initial (time zero)) was “Off-white” and the “Assay by HPLC” value ([1]; Initial (time zero)) was 103.4%. For the same compound, the “Chiral … (D, D) optical isomer” value ([1]; Initial (time zero)) was “(D, D):N, D”, the “Chiral … (D, L) optical isomer” value ([1]; Initial (time zero)) was “(D, L):N, D” and the “Chiral … (L, D) optical isomer” value ([1]; Initial (time zero)) was “(L, D):N, D”. The “Chiral, HPLC: chiral purity” value ([1]; Initial (time zero)) was 100.0%, the “Impurities, HPLC: H-His-OH” value ([1]; Initial (time zero)) was 0.07% and the “Impurities, HPLC: each other individual impurity” value ([1]; Initial (time zero)) was “individual < 0.03%”. The “Water content (KF)” value ([1]; Initial (time zero)) was 7.4%, the XRPD ([1]; Initial (time zero)) was “Conform to reference” and the “Post-DVS XRPD form” value [2] was “no change in form”. For the same compound, the “Post-DVS XRPD form” value ([2]; listed as CHP pattern 2) was “no change in form”, the “DVS water loss in equivalents” value ([2]; below 10% RH, 25 °C) was 0.5 equiv. water and the DVS weight loss ([2]; below 10% RH, 25 °C) was 3.5 wt. %. The “Chemical stability under both crystallization conditions” value [3] was “stable”.
